# Test results: patent publication US10167276B2, “Compounds and methods for inhibiting JAK” (Dizal (Jiangsu) Pharmaceutical Co., Ltd., priority 2015, dated 2019)
# Test system: STAT3 phosphorylation in NCI-H1975 cells
# Assay: Cellular pSTAT3 assay in NCI-H1975 cells
# Type: cell-based
# Details: Homo sapiens, 2 hours with compound
# Experimental: NCI-H1975 cells were plated onto Costar #3701 96 or 384 well tissue-culture treated plates at 5,000 cells/well in 30 uL medium (RPMI, 10% FBS, supplemented with L-glutamine) and incubated overnight at 37° C. in 5% CO2. Phospho STAT3 signal was quantitated utilizing Cell Signaling Technology #7146B Pathscan […] STAT3 antibody pair kit, following manufacturer's instructions.
# Cells were dosed with compound and incubated at 37° C. in 5% CO2 for 2 hours, after which medium and compound were aspirated and cells lysed with 35 uL cold 1×Cell Signaling Lysis buffer and chilled at 4° C. for 1-2 hours. Lysate was incubated on STAT3 capture plates at 4° C. overnight, washed 3× with Tris-Buffered Saline with 0.05% Tween® 20 (TBST), then […] STAT3 detection antibody was applied for 2 hours. Following washing with TBST (3×), HRP-secondary antibody was applied for 2 hours. After additional washing, signal was detected using TMB and Stop solution and read at 450 nm using Tecan Infinite M100.
row,Structure (SMILES),IC50
1,"CCOc1nn(C)cc1Nc1ncc(F)c(-c2c[nH]c3c(NC(=O)[C@H](C)N4CCN(C)C[C@@H]4C)cccc23)n1 [Example 10b, (2S)-2-[(2S)-2,4-dimethylpiperazin-1-yl]-N-(3-{2-[(3-ethoxy-1-methyl-1H-pyrazol-4-yl)amino]-5-fluoropyrimidin-4-yl}-1H-indol-7-yl)propanamide]",> 3000 nM
2,"CCOc1nn(C)cc1Nc1ncc(F)c(-c2c[nH]c3c(NC(=O)[C@@H](C)N4CCN(C)C[C@H]4C)cccc23)n1 [Example 12, (2R)-2-[(2R)-2,4-dimethylpiperazin-1-yl]-N-(3-{2-[(3-ethoxy-1-methyl-1H-pyrazol-4-yl)amino]-5-fluoropyrimidin-4-yl}-1H-indol-7-yl)propanamide]",246 nM
3,"COc1nn(C)cc1Nc1ncc(C)c(-c2c[nH]c3c(NC(=O)[C@@H](C)N4CCN(CCO)CC4)cccc23)n1 [Example 15, (2R)-2-[4-(2-hydroxyethyl)piperazin-1-yl]-N-(3-{2-[(3-methoxy-1-methyl-1H-pyrazol-4-yl)amino]-5-methylpyrimidin-4-yl}-1H-indol-7-yl)propanamide]",131 nM
4,"CCN1CCN([C@H](C)C(=O)Nc2cccc3c(-c4nc(Nc5cn(C)nc5OC)ncc4C)c[nH]c23)CC1 [Example 16, (2R)-2-(4-ethylpiperazin-1-yl)-N-(3-{2-[(3-methoxy-1-methyl-1H-pyrazol-4-yl)amino]-5-methylpyrimidin-4-yl}-1H-indol-7-yl)propanamide]",105 nM
5,"COCCN1CCN([C@H](C)C(=O)Nc2cccc3c(-c4nc(Nc5cn(C)nc5OC)ncc4C)c[nH]c23)CC1 [Example 17, (2R)-2-[4-(2-methoxyethyl)piperazin-1-yl]-N-(3-{2-[(3-methoxy-1-methyl-1H-pyrazol-4-yl)amino]-5-methylpyrimidin-4-yl}-1H-indol-7-yl)propanamide]",229 nM
6,COc1nn(C)cc1Nc1ncc(F)c(-c2c[nH]c3c(NC(=O)[C@@H](C)N4CCN(C)CC4)cccc23)n1 [Example 25],115 nM
7,"COc1nn(C)cc1Nc1nccc(-c2c[nH]c3c(NC(=O)[C@@H](C)N4CCN(C)[C@@H](C)C4)cccc23)n1 [Example 26, (2R)-2-[(3S)-3,4-dimethylpiperazin-1-yl]-N-(3-{2-[(3-methoxy-1-methyl-1H-pyrazol-4-yl)amino]pyrimidin-4-yl}-1H-indol-7-yl)propanamide]",256 nM
8,"COCCN1CCN([C@H](C)C(=O)Nc2cccc3c(-c4ccnc(Nc5cn(C)nc5OC)n4)c[nH]c23)CC1 [Example 27, (2R)-2-[4-(2-methoxyethyl)piperazin-1-yl]-N-(3-{2-[(3-methoxy-1-methyl-1H-pyrazol-4-yl)amino]pyrimidin-4-yl}-1H-indol-7-yl)propanamide]",609 nM
9,"CCN1CCN([C@H](C)C(=O)Nc2cccc3c(-c4ccnc(Nc5cn(C)nc5OC)n4)c[nH]c23)CC1 [Example 28, (2R)-2-(4-ethylpiperazin-1-yl)-N-(3-{2-[(3-methoxy-1-methyl-1H-pyrazol-4-yl)amino]pyrimidin-4-yl}-1H-indol-7-yl)propanamide]",100 nM
10,"COc1nn(C)cc1Nc1nccc(-c2c[nH]c3c(NC(=O)[C@@H](C)N4CCN(C)C[C@H]4C)cccc23)n1 [Example 29, (2R)-2-[(2R)-2,4-dimethylpiperazin-1-yl]-N-(3-{2-[(3-methoxy-1-methyl-1H-pyrazol-4-yl)amino]pyrimidin-4-yl}-1H-indol-7-yl)propanamide]",227 nM
11,"COc1nn(C)cc1Nc1nccc(-c2c[nH]c3c(NC(=O)[C@@H](C)N4CCN(C)[C@H](C)C4)cccc23)n1 [Example 30, (2R)-2-[(3R)-3,4-dimethylpiperazin-1-yl]-N-(3-{2-[(3-methoxy-1-methyl-1H-pyrazol-4-yl)amino]pyrimidin-4-yl}-1H-indol-7-yl)propanamide]",359 nM
12,"COc1nn(C)cc1Nc1ncc(C)c(-c2c[nH]c3c(NC(=O)[C@H](C)N4CCN(C)CC4)cccc23)n1 [Example 33, (2S)-N-{3-[2-[(3-methoxy-1-methyl-1H-pyrazol-4-yl)amino]-5-methylpyrimidin-4-yl}-1H-indol-7-yl)-2-(4-methylpiperaizn-1-yl)propanamide]",308 nM
13,"COc1nn(C)cc1Nc1ncc(C)c(-c2c[nH]c3c(NC(=O)[C@@H](C)N4CCN(C)CC4)cccc23)n1 [Example 34, (2R)-N-(3-{2-[(3-Methoxy-1-methyl-1H-pyrazol-4-yl)amino]-5-methylpyrimidin-4-yl}-1H-indol-7-yl)-2-(4-methylpiperazin-1-yl)propanamide]",128 nM

# More lines, now with the values ahead:
row,IC50,Structure (SMILES)
1,209 nM,"CCOc1nn(C)cc1Nc1ncc(F)c(-c2c[nH]c3c(NC(=O)[C@@H](C)N4CCN(C)[C@@H](C)C4)cccc23)n1 [Example 11a, (2R)-2-[(3S)-3,4-dimethylpiperazin-1-yl]-N-(3-{2-[(3-ethoxy-1-methyl-1H-pyrazol-4-yl)amino]-5-fluoropyrimidin-4-yl}-1H-indol-7-yl)propanamide]"
2,2280 nM,"CCOc1nn(C)cc1Nc1ncc(F)c(-c2c[nH]c3c(NC(=O)[C@H](C)N4CCN(C)[C@@H](C)C4)cccc23)n1 [Example 11b, (2S)-2-[(3S)-3,4-dimethylpiperazin-1-yl]-N-(3-{2-[(3-ethoxy-1-methyl-1H-pyrazol-4-yl)amino]-5-fluoropyrimidin-4-yl}-1H-indol-7-yl)propanamide]"
3,222 nM,"CCOc1nn(C)cc1Nc1ncc(F)c(-c2c[nH]c3c(NC(=O)[C@@H](C)N4CCN(C)[C@H](C)C4)cccc23)n1 [Example 13, (2R)-2-[(3R)-3,4-dimethylpiperazin-1-yl]-N-(3-{2-[(3-ethoxy-1-methyl-1H-pyrazol-4-yl)amino]-5-fluoropyrimidin-4-yl}-1H-indol-7-yl)propanamide]"
4,70.3 nM,"COc1nn(C)cc1Nc1ncc(C)c(-c2c[nH]c3c(NC(=O)[C@@H](C)N4CCN(C)[C@@H](C)C4)cccc23)n1 [Example 14, (2R)-2-[(3S)-3,4-dimethylpiperazin-1-yl]-N-(3-{2-[(3-methoxy-1-methyl-1H-pyrazol-4-yl)amino]-5-methylpyrimidin-4-yl}-1H-indol-7-yl)propanamide]"
5,175 nM,"COc1nn(C)cc1Nc1ncc(C)c(-c2c[nH]c3c(NC(=O)[C@@H](C)N4CCN(C)[C@H](C)C4)cccc23)n1 [Example 18, (2R)-2-[(3R)-3,4-dimethylpiperazin-1-yl]-N-(3-{2-[(3-methoxy-1-methyl-1H-pyrazol-4-yl)amino]-5-methylpyrimidin-4-yl}-1H-indol-7-yl)propanamide]"
6,470 nM,"COc1nn(C)cc1Nc1ncc(C)c(-c2c[nH]c3c(NC(=O)[C@@H](C)N4CCN(C)C[C@@H]4C)cccc23)n1 [Example 19, (2R)-2-[(2S)-2,4-dimethylpiperazin-1-yl]-N-(3-{2-[(3-methoxy-1-methyl-1H-pyrazol-4-yl)amino]-5-methylpyrimidin-4-yl}-1H-indol-7-yl)propanamide]"
7,184 nM,"CCOc1nn(C)cc1Nc1ncc(C)c(-c2c[nH]c3c(NC(=O)[C@@H](C)N4CCN(CC)CC4)cccc23)n1 [Example 20, (2R)-N-(3-{2-[(3-ethoxy-1-methyl-1H-pyrazol-4-yl)amino]-5-methylpyrimidin-4-yl}-1H-indol-7-yl)-2-(4-ethylpiperazin-1-yl)propanamide]"
8,703 nM,"CCOc1nn(C)cc1Nc1ncc(C)c(-c2c[nH]c3c(NC(=O)[C@@H](C)N4CCN(CCOC)CC4)cccc23)n1 [Example 21, (2R)-N-(3-{2-[(3-ethoxy-1-methyl-1H-pyrazol-4-yl)amino]-5-methylpyrimidin-4-yl}-1H-indol-7-yl)-2-[4-(2-methoxyethyl)piperazin-1-yl]propanamide]"
9,550 nM,"CCOc1nn(C)cc1Nc1ncc(C)c(-c2c[nH]c3c(NC(=O)[C@@H](C)N4CCN(C)C[C@@H]4C)cccc23)n1 [Example 22, (2R)-2-[(2S)-2,4-dimethylpiperazin-1-yl]-N-(3-{2-[(3-ethoxy-1-methyl-1H-pyrazol-4-yl)amino]-5-methylpyrimidin-4-yl}-1H-indol-7-yl)propanamide]"
10,410 nM,"CCOc1nn(C)cc1Nc1ncc(C)c(-c2c[nH]c3c(NC(=O)[C@@H](C)N4CCN(C)C[C@H]4C)cccc23)n1 [Example 23, (2R)-2-[(2R)-2,4-dimethylpiperazin-1-yl]-N-(3-{2-[(3-ethoxy-1-methyl-1H-pyrazol-4-yl)amino]-5-methylpyrimidin-4-yl}-1H-indol-7-yl)propanamide]"
11,370 nM,"CCOc1nn(C)cc1Nc1ncc(C)c(-c2c[nH]c3c(NC(=O)[C@@H](C)N4CCN(C)[C@H](C)C4)cccc23)n1 [Example 24, (2R)-2-[(3R)-3,4-dimethylpiperazin-1-yl]-N-(3-{2-[(3-ethoxy-1-methyl-1H-pyrazol-4-yl)amino]-5-methylpyrimidin-4-yl}-1H-indol-7-yl)propanamide]"
12,153 nM,"CCOc1nn(C)cc1Nc1ncc(C)c(-c2c[nH]c3c(NC(=O)[C@@H](C)N4CCN(C)[C@@H](C)C4)cccc23)n1 [Example 31a, (2R)-2-[(3S)-3,4-dimethylpiperazin-1-yl]-N-(3-{2-[(3-ethoxy-1-methyl-1H-pyrazol-4-yl)amino]-5-methylpyrimidin-4-yl}-1H-indol-7-yl)propanamide]"
13,330 nM,"CCOc1nn(C)cc1Nc1ncc(C)c(-c2c[nH]c3c(NC(=O)[C@H](C)N4CCN(C)[C@@H](C)C4)cccc23)n1 [Example 31b, (2S)-2-[(3S)-3,4-dimethylpiperazin-1-yl]-N-(3-{2-[(3-ethoxy-1-methyl-1H-pyrazol-4-yl)amino]-5-methylpyrimidin-4-yl}-1H-indol-7-yl)propanamide]"
